Laboratory results published in ChEMBL document CHEMBL1201861, “Genomics of Drug Sensitity in Cancer screening data, Wellcome Trust Sanger Institute”.

Key:
Test in all cases: cells
Details in all cases: Homo sapiens
NCI-H69 = type: functional, cell-based;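 also: growth inhibition of the cell line, read out with a cell viability assay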
Description: SANGER: Inhibition of human NCI-H69 cell growth in a cell viability assay.

KURAMOCHI = type: functional, cell-based;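 also: growth inhibition of KURAMOCHI cells, read out with a cell viability assay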
Description: SANGER: Inhibition of human KURAMOCHI cell growth in a cell viability assay.

SF-126 = type: functional, cell-based;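 also: growth inhibition of human SF126 cells, read out with a cell viability assay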
Description: SANGER: Inhibition of human SF126 cell growth in a cell viability assay.

RPMI-8866 = type: functional, cell-based
Description: SANGER: Inhibition of human RPMI-8866 cell growth in a cell viability assay.

BB30-HNC = type: functional, cell-based;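 also: growth inhibition of the cultured cell line, read out by a cell viability assay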
Description: SANGER: Inhibition of human BB30-HNC cell growth in a cell viability assay.

KARPAS-299 = type: functional, cell-based
Description: SANGER: Inhibition of human KARPAS-299 cell growth in a cell viability assay.

SNU1 = type: functional, cell-based;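 also: growth inhibition of human NCI-SNU-1 cells, measured with a cell viability assay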
Description: SANGER: Inhibition of human NCI-SNU-1 cell growth in a cell viability assay.

8-MG-BA = type: functional, cell-based;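 also: growth inhibition of 8-MG-BA cells, read out with a cell viability assay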
Description: SANGER: Inhibition of human 8-MG-BA cell growth in a cell viability assay.

KMOE-2 = type: functional, cell-based;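 also: growth inhibition of human KMOE-2 cells, read out with a cell viability assay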
Description: SANGER: Inhibition of human KMOE-2 cell growth in a cell viability assay.

DJM-1 = type: functional, cell-based;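 also: growth inhibition of human DJM-1 cells, read out by a cell viability assay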
Description: SANGER: Inhibition of human DJM-1 cell growth in a cell viability assay.

CCRF-CEM = type: functional, cell-based;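 also: inhibition of CCRF-CEM cell growth, measured by a cell viability assay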
Description: SANGER: Inhibition of human CCRF-CEM cell growth in a cell viability assay.

HuTu80 = type: functional, cell-based, HUTU-80;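 also: growth inhibition of HuTu80 human cells, determined with a cell viability readout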
Description: SANGER: Inhibition of human HUTU-80 cell growth in a cell viability assay.

ONS-76 = type: functional, cell-based;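 also: growth inhibition of human ONS-76 cells, read out with a cell viability assay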
Description: SANGER: Inhibition of human ONS-76 cell growth in a cell viability assay.

NB6 = type: functional, cell-based;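 also: growth inhibition of NB6 cells, read out by a cell viability assay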
Description: SANGER: Inhibition of human NB6 cell growth in a cell viability assay.

LU-134-A = type: functional, cell-based
Description: SANGER: Inhibition of human LU-134-A cell growth in a cell viability assay.

MLMA = type: functional, cell-based;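 also: growth inhibition of MLMA cells (human), determined through a cell viability readout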
Description: SANGER: Inhibition of human MLMA cell growth in a cell viability assay.

HCC2218 = type: functional, cell-based;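 also: cell viability assay read-out, with IC50 given as the concentration that inhibits growth of the cell line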
Description: SANGER: Inhibition of human HCC2218 cell growth in a cell viability assay.

COLO-668 = type: functional, cell-based
Description: SANGER: Inhibition of human COLO-668 cell growth in a cell viability assay.

KS-1 = type: functional, cell-based;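 also: growth inhibition of KS-1 cells, read out with a cell viability assay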
Description: SANGER: Inhibition of human KS-1 cell growth in a cell viability assay.

LXF-289 cell line = type: functional, cell-based
Description: SANGER: Inhibition of human LXF-289 cell growth in a cell viability assay.

NCI-H747 = type: functional, cell-based;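 also: growth inhibition of human NCI-H747 cells, read out by a cell viability assay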
Description: SANGER: Inhibition of human NCI-H747 cell growth in a cell viability assay.

KARPAS-45 = type: functional, cell-based;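 also: inhibition of cell line growth, read out through a viability assay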
Description: SANGER: Inhibition of human KARPAS-45 cell growth in a cell viability assay.

SW 962 = type: functional, cell-based;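 also: growth inhibition of human SW962 cells, read out by a cell viability assay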
Description: SANGER: Inhibition of human SW962 cell growth in a cell viability assay.

HOP-62 = type: functional, cell-based;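 also: cell growth inhibition determined with a viability assay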
Description: SANGER: Inhibition of human HOP-62 cell growth in a cell viability assay.

CW-2 = type: functional, cell-based;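 also: growth inhibition of CW-2 cells, read out by a cell viability assay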
Description: SANGER: Inhibition of human CW-2 cell growth in a cell viability assay.

SNU-C2B = type: functional, cell-based;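 also: cell viability readout used to measure compound-driven suppression of SNU-C2B cell proliferation, IC50 marking half-maximal growth inhibition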
Description: SANGER: Inhibition of human SNU-C2B cell growth in a cell viability assay.

SK-NEP-1 = type: functional, cell-based;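 also: growth inhibition of human SK-NEP-1 cells, read out by a cell viability assay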
Description: SANGER: Inhibition of human SK-NEP-1 cell growth in a cell viability assay.

LS-513 = type: functional, cell-based
Description: SANGER: Inhibition of human LS-513 cell growth in a cell viability assay.

TK-10 = type: functional, cell-based;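 also: growth inhibition of TK-10 cells, read out in a cell viability assay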
Description: SANGER: Inhibition of human TK10 cell growth in a cell viability assay.

NOMO-1 = type: functional, cell-based;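 also: growth inhibition of human NOMO-1 cells measured by a cell viability assay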
Description: SANGER: Inhibition of human NOMO-1 cell growth in a cell viability assay.

NEC8 = type: functional, cell-based;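 also: growth inhibition of human NEC8 cells, read out by a cell viability assay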
Description: SANGER: Inhibition of human NEC8 cell growth in a cell viability assay.

QIMR-WIL = type: functional, cell-based;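 also: growth inhibition of QIMR-WIL cells, read out with a cell viability assay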
Description: SANGER: Inhibition of human QIMR-WIL cell growth in a cell viability assay.

SK-LMS-1 = type: functional, cell-based;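 also: growth inhibition of human SK-LMS-1 cells, read out with a cell viability assay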
Description: SANGER: Inhibition of human SK-LMS-1 cell growth in a cell viability assay.

NCI-H1155 = type: functional, cell-based;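 also: cell growth inhibition measured by a viability assay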
Description: SANGER: Inhibition of human NCI-H1155 cell growth in a cell viability assay.

LNCaP-Clone-FGC = type: functional, cell-based
Description: SANGER: Inhibition of human LNCaP-Clone-FGC cell growth in a cell viability assay.

EKVX = type: functional, cell-based;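 also: growth inhibition of human EKVX cells, read out with a cell viability assay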
Description: SANGER: Inhibition of human EKVX cell growth in a cell viability assay.

Mo = type: functional, cell-based
Description: SANGER: Inhibition of human Mo-T cell growth in a cell viability assay.

KINGS-1 = type: functional, cell-based;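 also: cell viability assay measuring suppression of KINGS-1 cell growth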
Description: SANGER: Inhibition of human KINGS-1 cell growth in a cell viability assay.

HH = type: functional, cell-based
Description: SANGER: Inhibition of human HH cell growth in a cell viability assay.

HC-1 = type: functional, cell-based;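 also: growth inhibition of HC-1 cells measured by a cell viability assay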
Description: SANGER: Inhibition of human HC-1 cell growth in a cell viability assay.

KY821 = type: functional, cell-based;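 also: growth inhibition of human KY821 cells, read out by a cell viability assay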
Description: SANGER: Inhibition of human KY821 cell growth in a cell viability assay.

MHH-NB-11 = type: functional, cell-based;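 also: growth inhibition of human MHH-NB-11 cells, read out by a cell viability assay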
Description: SANGER: Inhibition of human MHH-NB-11 cell growth in a cell viability assay.

TE-8 = type: functional, cell-based;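 also: growth inhibition of TE-8 cells, measured with a cell viability readout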
Description: SANGER: Inhibition of human TE-8 cell growth in a cell viability assay.

EW-1 = type: functional, cell-based;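 also: growth inhibition of the human EW-1 cell line, read out by a cell viability assay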
Description: SANGER: Inhibition of human EW-1 cell growth in a cell viability assay.

Lu-65 = type: functional, cell-based;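 also: growth inhibition of Lu-65 cancer cells, read out by a cell viability assay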
Description: SANGER: Inhibition of human LU-65 cell growth in a cell viability assay.

LS-1034 = type: functional, cell-based
Description: SANGER: Inhibition of human LS-1034 cell growth in a cell viability assay.

U-87 MG = type: functional, cell-based, U-87MG ATCC;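 also: growth inhibition of the cells measured with a viability assay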
Description: SANGER: Inhibition of human U-87-MG cell growth in a cell viability assay.

LAN-6 = type: functional, cell-based;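 also: growth inhibition of LAN-6 cells, determined with a cell viability assay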
Description: SANGER: Inhibition of human LAN-6 cell growth in a cell viability assay.

D-502MG = type: functional, cell-based
Description: SANGER: Inhibition of human D-502MG cell growth in a cell viability assay.

HCE-T = type: functional, cell-based;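 also: cell viability assay read-out, reporting inhibition of HCE-T cell growth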
Description: SANGER: Inhibition of human HCE-T cell growth in a cell viability assay.

SW982 = type: functional, cell-based;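 also: growth inhibition of SW982 cells, read out with a cell viability assay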
Description: SANGER: Inhibition of human SW982 cell growth in a cell viability assay.

KLE = type: functional, cell-based;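 also: growth inhibition of human KLE cells, read out with a cell viability assay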
Description: SANGER: Inhibition of human KLE cell growth in a cell viability assay.

NOS-1 = type: functional, cell-based;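 also: growth inhibition of the human NOS-1 cell line, read out with a cell viability assay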
Description: SANGER: Inhibition of human NOS-1 cell growth in a cell viability assay.

OMC-1 = type: functional, cell-based;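 also: growth inhibition of the OMC-1 cell line, measured by a cell viability assay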
Description: SANGER: Inhibition of human OMC-1 cell growth in a cell viability assay.

A704 = type: functional, cell-based;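 also: growth inhibition of human A704 cells, read out with a cell viability assay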
Description: SANGER: Inhibition of human A704 cell growth in a cell viability assay.

DOHH-2 = type: functional, cell-based;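 also: growth inhibition of human DOHH-2 cells, read out with a cell viability assay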
Description: SANGER: Inhibition of human DOHH-2 cell growth in a cell viability assay.

TGBC24TKB = type: functional, cell-based;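 also: growth inhibition of human TGBC24TKB cells, read out with a cell viability assay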
Description: SANGER: Inhibition of human TGBC24TKB cell growth in a cell viability assay.

MSTO-211H = type: functional, cell-based
Description: SANGER: Inhibition of human MSTO-211H cell growth in a cell viability assay.

P30-OHK = type: functional, cell-based;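 also: growth inhibition of the P30-OHK cell line, read out with a cell viability assay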
Description: SANGER: Inhibition of human P30-OHK cell growth in a cell viability assay.

IA-LM = type: functional, cell-based;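 also: cell viability assay measuring growth inhibition of human IA-LM cells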
Description: SANGER: Inhibition of human IA-LM cell growth in a cell viability assay.

MHH-PREB-1 = type: functional, cell-based;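 also: cell viability assay measuring inhibition of proliferation of human MHH-PREB-1 cells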
Description: SANGER: Inhibition of human MHH-PREB-1 cell growth in a cell viability assay.

C8166 = type: functional, cell-based
Description: SANGER: Inhibition of human C8166 cell growth in a cell viability assay.

Ramos-2G6-4C10 = type: functional, cell-based
Description: SANGER: Inhibition of human Ramos-2G6-4C10 cell growth in a cell viability assay.

ES5 = type: functional, cell-based
Description: SANGER: Inhibition of human ES5 cell growth in a cell viability assay.

GCIY = type: functional, cell-based
Description: SANGER: Inhibition of human GCIY cell growth in a cell viability assay.

With `CC(C)=CC[C@@H](O)C1=CC(=O)c2c(O)ccc(O)c2C1=O` [SHIKONIN] the IC50 (NCI-H69) was 6.71 µM, the IC50 (KURAMOCHI) was 3.16 µM and the IC50 (SF-126) was 0.773 µM. For the same molecule, the IC50 (RPMI-8866) was 0.536 µM, the IC50 (BB30-HNC) was 0.243 µM and the IC50 (KARPAS-299) was 0.799 µM. For the same molecule, the IC50 (SNU1) was 1.6 µM, the IC50 (8-MG-BA) was 0.0856 µM and the IC50 (KMOE-2) was 1.24 µM. The IC50 (DJM-1) was 6.39 µM, the IC50 (CCRF-CEM) was 0.567 µM and the IC50 (HuTu80) was 0.37 µM. It also gave an IC50 (ONS-76) of 0.358 µM, an IC50 (NB6) of 0.454 µM and an IC50 (LU-134-A) of 0.81 µM. It also gave an IC50 (MLMA) of 0.539 µM, an IC50 (HCC2218) of 0.496 µM and an IC50 (COLO-668) of 6.2 µM. The IC50 (KS-1) was 0.0415 µM, the IC50 (LXF-289 cell line) was 3.27 µM and the IC50 (NCI-H747) was 0.441 µM. For the same molecule, the IC50 (KARPAS-45) was 9.99 µM, the IC50 (SW 962) was 0.568 µM and the IC50 (HOP-62) was 1.16 µM. The IC50 (CW-2) was over 16 µM, the IC50 (SNU-C2B) was over 16 µM and the IC50 (SK-NEP-1) was 1.08 µM. For the same molecule, the IC50 (LS-513) was 1.48 µM, the IC50 (TK-10) was 1.22 µM and the IC50 (NOMO-1) was 1.16 µM. It also gave an IC50 (NEC8) of 0.84 µM, an IC50 (QIMR-WIL) of 0.182 µM and an IC50 (SK-LMS-1) of 0.108 µM. It also gave an IC50 (NCI-H1155) of over 16 µM, an IC50 (LNCaP-Clone-FGC) of over 16 µM and an IC50 (EKVX) of 3.67 µM. For the same molecule, the IC50 (Mo) was 0.82 µM, the IC50 (KINGS-1) was 14.1 µM and the IC50 (HH) was 1.12 µM. For the same molecule, the IC50 (HC-1) was over 16 µM, the IC50 (KY821) was 0.747 µM and the IC50 (MHH-NB-11) was 0.486 µM. It also gave an IC50 (TE-8) of 1.28 µM, an IC50 (EW-1) of 0.844 µM and an IC50 (Lu-65) of over 16 µM. The IC50 (LS-1034) was 2.75 µM, the IC50 (U-87 MG) was 1.28 µM and the IC50 (LAN-6) was 3.22 µM. For the same molecule, the IC50 (D-502MG) was 4.37 µM, the IC50 (HCE-T) was 0.72 µM and the IC50 (SW982) was 0.0602 µM. The IC50 (KLE) was 0.685 µM, the IC50 (NOS-1) was over 16 µM and the IC50 (OMC-1) was 1.75 µM. It also gave an IC50 (A704) of 2.7 µM, an IC50 (DOHH-2) of 0.706 µM and an IC50 (TGBC24TKB) of over 16 µM. It also gave an IC50 (MSTO-211H) of over 16 µM, an IC50 (P30-OHK) of 0.22 µM and an IC50 (IA-LM) of 2.08 µM. The IC50 (MHH-PREB-1) was 0.252 µM, the IC50 (C8166) was 0.408 µM and the IC50 (Ramos-2G6-4C10) was 0.315 µM. The IC50 (ES5) was 2.63 µM and the IC50 (GCIY) was 0.036 µM.

With `COc1cc(C)c(Sc2cnc(NC(=O)c3ccc(CNC(C)C(C)(C)C)cc3)s2)cc1C(=O)N1CCN(C(C)=O)CC1` (stereo not given) the IC50 (NCI-H69) was over 10.2 µM, the IC50 (KURAMOCHI) was over 10.2 µM and the IC50 (SF-126) was over 10.2 µM. It also gave an IC50 (RPMI-8866) of over 10.2 µM, an IC50 (BB30-HNC) of 9.34 µM and an IC50 (KARPAS-299) of over 10.2 µM. The IC50 (SNU1) was over 10.2 µM, the IC50 (8-MG-BA) was over 10.2 µM and the IC50 (KMOE-2) was over 10.2 µM. For the same molecule, the IC50 (DJM-1) was over 10.2 µM, the IC50 (CCRF-CEM) was over 10.2 µM and the IC50 (HuTu80) was over 10.2 µM. It also gave an IC50 (ONS-76) of over 10.2 µM, an IC50 (NB6) of over 10.2 µM and an IC50 (LU-134-A) of over 10.2 µM. It also gave an IC50 (MLMA) of over 10.2 µM, an IC50 (HCC2218) of over 10.2 µM and an IC50 (COLO-668) of over 10.2 µM. It also gave an IC50 (KS-1) of 1.21 µM, an IC50 (LXF-289 cell line) of 9.12 µM and an IC50 (NCI-H747) of 3.86 µM. The IC50 (KARPAS-45) was over 10.2 µM, the IC50 (SW 962) was 8.13 µM and the IC50 (HOP-62) was over 10.2 µM. For the same molecule, the IC50 (CW-2) was over 10.2 µM, the IC50 (SNU-C2B) was 4.64 µM and the IC50 (SK-NEP-1) was over 10.2 µM. It also gave an IC50 (LS-513) of over 10.2 µM, an IC50 (TK-10) of over 10.2 µM and an IC50 (NOMO-1) of over 10.2 µM. The IC50 (NEC8) was over 10.2 µM, the IC50 (QIMR-WIL) was 10.1 µM and the IC50 (SK-LMS-1) was over 10.2 µM. It also gave an IC50 (NCI-H1155) of over 10.2 µM, an IC50 (LNCaP-Clone-FGC) of over 10.2 µM and an IC50 (EKVX) of over 10.2 µM. It also gave an IC50 (Mo) of over 10.2 µM, an IC50 (KINGS-1) of over 10.2 µM and an IC50 (HH) of over 10.2 µM. It also gave an IC50 (HC-1) of over 10.2 µM, an IC50 (KY821) of over 10.2 µM and an IC50 (MHH-NB-11) of over 10.2 µM. For the same molecule, the IC50 (TE-8) was 6.44 µM, the IC50 (EW-1) was 3.11 µM and the IC50 (Lu-65) was over 10.2 µM. For the same molecule, the IC50 (LS-1034) was 7.42 µM, the IC50 (U-87 MG) was over 10.2 µM and the IC50 (LAN-6) was 7.29 µM. For the same molecule, the IC50 (D-502MG) was over 10.2 µM, the IC50 (HCE-T) was over 10.2 µM and the IC50 (SW982) was 2.91 µM. It also gave an IC50 (KLE) of over 10.2 µM, an IC50 (NOS-1) of 1.3 µM and an IC50 (OMC-1) of over 10.2 µM. For the same molecule, the IC50 (A704) was over 10.2 µM, the IC50 (DOHH-2) was over 10.2 µM and the IC50 (TGBC24TKB) was over 10.2 µM. It also gave an IC50 (MSTO-211H) of over 10.2 µM, an IC50 (P30-OHK) of over 10.2 µM and an IC50 (IA-LM) of 5.39 µM. It also gave an IC50 (MHH-PREB-1) of over 10.2 µM, an IC50 (C8166) of over 10.2 µM and an IC50 (Ramos-2G6-4C10) of over 10.2 µM. It also gave an IC50 (ES5) of over 10.2 µM and an IC50 (GCIY) of over 10.2 µM.
